One may read the Ki as the equilibrium dissociation constant of an inhibitor or competing ligand from its target. A lower Ki goes with a stronger hold on the target.

Assay [1] has as its target T1, Gonadotropin-releasing hormone receptor (Rattus norvegicus, UniProt P30969).
T1 sequence (P30969 whole entry): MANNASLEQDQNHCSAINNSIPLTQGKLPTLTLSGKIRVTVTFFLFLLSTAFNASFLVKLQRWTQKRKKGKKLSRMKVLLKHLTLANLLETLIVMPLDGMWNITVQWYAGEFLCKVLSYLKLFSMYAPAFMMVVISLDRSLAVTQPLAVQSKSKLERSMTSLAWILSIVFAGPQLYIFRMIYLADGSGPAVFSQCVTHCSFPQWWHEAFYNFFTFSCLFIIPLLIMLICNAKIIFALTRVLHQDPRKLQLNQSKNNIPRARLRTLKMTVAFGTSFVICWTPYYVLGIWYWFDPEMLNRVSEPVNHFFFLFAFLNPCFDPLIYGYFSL
The assay is described as follows: Binding affinity to rat gonadotropin-releasing hormone receptor.

The target in assay [2] is T2, Gonadotropin-releasing hormone receptor (Homo sapiens, UniProt P30968).
T2 sequence (P30968 whole entry): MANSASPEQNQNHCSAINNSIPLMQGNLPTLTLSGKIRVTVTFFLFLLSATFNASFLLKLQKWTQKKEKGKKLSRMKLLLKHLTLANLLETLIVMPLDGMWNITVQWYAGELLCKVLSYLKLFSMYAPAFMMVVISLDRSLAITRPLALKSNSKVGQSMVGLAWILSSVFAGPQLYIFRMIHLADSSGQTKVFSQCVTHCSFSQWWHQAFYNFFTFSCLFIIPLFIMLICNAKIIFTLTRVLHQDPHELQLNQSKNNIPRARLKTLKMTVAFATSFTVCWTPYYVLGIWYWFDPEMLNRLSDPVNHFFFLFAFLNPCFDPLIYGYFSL
Briefly: In vitro binding affinity to human gonadotropin-releasing hormone receptor.

On to `Cc1cc2c(cc1Cc1ccc(C(=O)NCC3CCC(CN)CC3)o1)C(C)(C)CCC2(C)C` (stereo not drawn), for which the inhibitory constant (Ki) in assay [1] is 0.73 µM; in assay [2], 0.042 µM.

For `Cc1cc2c(cc1Cc1ccc(C(=O)NC[C@H]3CC[C@H](CNC(=N)N)CC3)o1)C(C)(C)CCC2(C)C`, the inhibition constant (Ki) in assay [1] is 0.385 µM; in assay [2], 0.016 µM.

`Cc1cnc(CNC(=O)c2ccc(Cc3cc4c(cc3C)C(C)(C)CCC4(C)C)o2)cn1`: the values for the inhibition constant (Ki) in assay [1] and in assay [2] were 0.055 µM and 0.056 µM, respectively.

As to `Cc1cc2c(cc1Cc1ccc(C(=O)NCC3CCNCC3)o1)C(C)(C)CCC2(C)C`, the figures for the inhibition constant Ki in assay [1] and in assay [2] were 5.21 µM and 0.7 µM, respectively.

Turning to `Cc1cc2c(cc1Cc1ccc(C(=O)NCC3CCN(C(=N)N)CC3)o1)C(C)(C)CCC2(C)C`, the Ki in assay [1] was 2.04 µM; in assay [2] it was 0.22 µM.

For the molecule `Cc1cc2c(cc1Cc1ccc(C(=O)NCC3CCC(C#N)CC3)o1)C(C)(C)CCC2(C)C` (stereo not drawn), the Ki was found to be 0.56 µM in assay [1] and 0.017 µM in assay [2].

Take `Cc1cc2c(cc1Cc1ccc(C(=O)NCC3CCCC(CN)C3)o1)C(C)(C)CCC2(C)C` (stereo not drawn): the Ki in assay [1] amounted to 0.89 µM; in assay [2], 0.174 µM.

As to `Cc1cc2c(cc1Cc1ccc(C(=O)NC[C@H]3CC[C@@H](CNC(=N)N)CC3)o1)C(C)(C)CCC2(C)C`, the inhibitory constant (Ki) in assay [1] is 0.73 µM; in assay [2] it was 0.04 µM.

In the case of `Cc1cc2c(cc1Cc1ccc(C(=O)NC[C@H]3CC[C@H](C(N)=O)CC3)o1)C(C)(C)CCC2(C)C`, the Ki in assay [1] is 0.27 µM; in assay [2] it was 0.013 µM.

Turning to `Cc1cc2c(cc1Cc1ccc(C(=O)NCc3ccc(CN)cc3)o1)C(C)(C)CCC2(C)C`, the inhibition constant (Ki) in assay [1] came out at 0.28 µM; in assay [2], 0.14 µM.

Take `Cc1cc2c(cc1Cc1ccc(C(=O)NCC3CCC(CNC(=N)N)CC3)o1)C(C)(C)CCC2(C)C` (stereo not drawn): the Ki came out at 0.52 µM in assay [1] and 0.04 µM in assay [2].

Take `Cc1cc2c(cc1Cc1ccc(C(=O)NC[C@H]3CC[C@H](C(=O)O)CC3)o1)C(C)(C)CCC2(C)C`: the Ki is 3 µM in assay [1] and 0.25 µM in assay [2].

Consider `Cc1cc2c(cc1Cc1ccc(C(=O)NCC3CCN(C(=O)OC(C)(C)C)CC3)o1)C(C)(C)CCC2(C)C`, for which the inhibitory constant (Ki) in assay [1] worked out at 3.26 µM; in assay [2], 0.054 µM.

For the molecule `Cc1cc2c(cc1Cc1ccc(C(=O)NCC3CCC(CNCc4c(C)noc4C)CC3)o1)C(C)(C)CCC2(C)C` (stereo not drawn), the inhibition constant Ki came out at 1.2 µM in assay [1] and 0.18 µM in assay [2].

As for `Cc1ccc(CNC(=O)c2ccc(Cc3cc4c(cc3C)C(C)(C)CCC4(C)C)o2)cc1`, the inhibition constant (Ki) in assay [1] came out at 0.06 µM; in assay [2], 0.083 µM.

For the molecule `Cc1cc2c(cc1Cc1ccc(C(=O)NCC3CCC(CNCc4cc(=O)[nH]c(=O)[nH]4)CC3)o1)C(C)(C)CCC2(C)C` (stereo not drawn), the results for the Ki in assay [1] and in assay [2] were 0.865 µM and 0.024 µM, respectively.

Consider `CCOC(=O)[C@H]1CC[C@H](CNC(=O)c2ccc(Cc3cc4c(cc3C)C(C)(C)CCC4(C)C)o2)CC1`, for which the Ki in assay [1] was 2.73 µM; in assay [2], 0.051 µM.

As for `Cc1cc2c(cc1Cc1ccc(C(=O)NCc3ccccc3)o1)C(C)(C)CCC2(C)C`, the Ki in assay [1] came out at 0.24 µM; in assay [2], 0.102 µM.

Consider `Cc1cc2c(cc1Cc1ccc(C(=O)NCc3ccc(CN(C)C)cc3)o1)C(C)(C)CCC2(C)C`, for which the inhibition constant Ki in assay [1] worked out at 0.14 µM; in assay [2], 0.079 µM.

On to `COC(=O)[C@H]1CC[C@H](CNC(=O)c2ccc(Cc3cc4c(cc3C)C(C)(C)CCC4(C)C)o2)CC1`, for which the inhibition constant Ki in assay [1] stood at 0.83 µM; in assay [2], 0.024 µM.

Turning to `Cc1cc2c(cc1Cc1ccc(C(=O)NCC3CCC(CNC(=O)C(F)(F)F)CC3)o1)C(C)(C)CCC2(C)C` (stereo not drawn), the Ki in assay [1] worked out at 2.72 µM; in assay [2] it was 0.066 µM.

Regarding `Cc1cc2c(cc1Cc1ccc(C(=O)NCc3cccc(CN)c3)o1)C(C)(C)CCC2(C)C`, the values for the inhibitory constant (Ki) in assay [1] and in assay [2] were 0.094 µM and 0.091 µM, respectively.

In the case of `Cc1cc2c(cc1Cc1ccc(C(=O)NCC3CCCCC3)o1)C(C)(C)CCC2(C)C`, the inhibition constant (Ki) is 1.55 µM in assay [1] and 0.18 µM in assay [2].

`Cc1cc2c(cc1Cc1ccc(C(=O)NCC3CCCC(CNC(=O)C(F)(F)F)C3)o1)C(C)(C)CCC2(C)C` (stereo not drawn): the Ki in assay [1] came out at 0.25 µM; in assay [2], 0.02 µM.

For the origin of these results see ChEMBL document CHEMBL1135861, “The discovery of novel small molecule non-peptide gonadotropin releasing hormone (GnRH) receptor antagonists” (Bioorg Med Chem Lett, 2002).
